From US20250296959A1, “B7-H3 TARGETING PEPTIDES AND CONSTRUCTS THEREOF” (Mariana Oncology Inc., priority 2024, published 2025)
Positions of bridges follow the written chain, without caps; N, C: chain ends. Non-standard residues stand in square brackets, D forms with d. Residues, ends and D or L forms follow the SMILES beside them. *: point of attachment. DOTA = O=C(O)CN1CCN(CC(=O)O)CCN(CC(=O)*)CCN(CC(=O)O)CC1; Phe(4-COOH) = N[C@@H](Cc1ccc(C(=O)O)cc1)C(=O)O; Trp(5-F) = N[C@@H](Cc1c[nH]c2ccc(F)cc12)C(=O)O; hTyr = N[C@@H](CCc1ccc(O)cc1)C(=O)O; αMeF = C[C@](N)(Cc1ccccc1)C(=O)O; 3Pal = N[C@@H](Cc1cccnc1)C(=O)O; hLeu = CC(C)CC[C@H](N)C(=O)O

Biological target: T1, human 4lg B7-H3 (Homo sapiens, UniProt Q5ZPR3)
T1 sequence (Q5ZPR3 29-534): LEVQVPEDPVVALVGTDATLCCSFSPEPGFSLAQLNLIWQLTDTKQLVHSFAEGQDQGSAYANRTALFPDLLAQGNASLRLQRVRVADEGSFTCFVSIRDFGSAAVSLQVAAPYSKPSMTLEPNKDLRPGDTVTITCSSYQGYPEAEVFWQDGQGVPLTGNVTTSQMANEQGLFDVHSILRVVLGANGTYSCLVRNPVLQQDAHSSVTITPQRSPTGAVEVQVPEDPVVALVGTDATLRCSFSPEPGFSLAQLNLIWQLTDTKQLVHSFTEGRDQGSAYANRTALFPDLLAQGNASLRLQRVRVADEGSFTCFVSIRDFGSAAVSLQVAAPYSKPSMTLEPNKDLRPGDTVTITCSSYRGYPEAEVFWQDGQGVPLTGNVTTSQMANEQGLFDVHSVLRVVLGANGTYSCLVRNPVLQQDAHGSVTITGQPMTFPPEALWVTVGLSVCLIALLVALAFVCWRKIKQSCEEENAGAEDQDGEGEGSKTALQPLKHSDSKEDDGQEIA
Assay: Affinity determination by surface plasmon resonance (SPR) to 4Ig B7-H3
Settings: SPR KD—25° C., 4Ig B7-H3; 25° C. flow cell temperature

Row | Structure (SMILES) | Kd
1 | CC(=O)N[C@@H](CCC(C)C)C(=O)N[C@@H](Cc1ccc(O)cc1)C(=O)N[C@H]1CSSC[C@@H](C(=O)N[C@@H](Cc2c[nH]c3ccc(F)cc23)C(=O)N[C@@H](Cc2ccc(C(=O)O)cc2)C(=O)N[C@H](C(=O)N[C@H](CCCCNC(=O)CN2CCN(CC(=O)O)CCN(CC(=O)O)CCN(CC(=O)O)CC2)C(N)=O)[C@@H](C)O)NC(=O)[C@H](Cc2ccc(O)cc2)NC(=O)[C@H](C(C)C)NC(=O)[C@H](CC(=O)O)NC(=O)[C@H](Cc2ccc(O)cc2)NC(=O)[C@H](CCCCN)NC(=O)CNC(=O)[C@H](C(C)C)NC1=O [compound 166, Ac-hLeu-Y-C-V-G-K-Y-D-V-Y-C-5FW-4COOHPhe-Thr-dLys(DOTA)-CONH2] (Ac-[hLeu]YCVGKYDVYC[Trp(5-F)][Phe(4-COOH)]T[dK](DOTA)-NH2; disulfide 3-11) | 10 to 100 nM
2 | CC(=O)N[C@@H](CCC(C)C)C(=O)N[C@@H](Cc1ccc(O)cc1)C(=O)N[C@H]1CSSC[C@@H](C(=O)N[C@@H](Cc2c[nH]c3ccc(F)cc23)C(=O)N[C@@H](Cc2ccccc2)C(=O)N[C@H](C(=O)N[C@H](CCCCNC(=O)CN2CCN(CC(=O)O)CCN(CC(=O)O)CCN(CC(=O)O)CC2)C(N)=O)[C@@H](C)O)NC(=O)[C@H](Cc2ccc(O)cc2)NC(=O)[C@H](C(C)C)NC(=O)[C@H](CC(=O)O)NC(=O)[C@H](CCc2ccc(O)cc2)NC(=O)[C@H](CCCCN)NC(=O)CNC(=O)[C@H](C(C)C)NC1=O [compound 167, Ac-hLeu-Y-C-V-G-K-hTyr-D-V-Y-C-5FW-F-Thr-dLys(DOTA)-CONH2] (Ac-[hLeu]YCVGK[hTyr]DVYC[Trp(5-F)]FT[dK](DOTA)-NH2; disulfide 3-11) | 1 to 10 nM

Second part, the molecule after the results:

Row | Kd | Structure (SMILES)
3 | 100 to 300 nM | CC(=O)N[C@@H](CCC(C)C)C(=O)N[C@@H](Cc1ccc(O)cc1)C(=O)N[C@H]1CSSC[C@@H](C(=O)N[C@@H](Cc2c[nH]c3ccc(F)cc23)C(=O)N[C@@](C)(Cc2ccccc2)C(=O)N[C@H](C(=O)N[C@H](CCCCNC(=O)CN2CCN(CC(=O)O)CCN(CC(=O)O)CCN(CC(=O)O)CC2)C(N)=O)[C@@H](C)O)NC(=O)[C@H](Cc2ccc(O)cc2)NC(=O)[C@H](C(C)C)NC(=O)[C@H](CC(=O)O)NC(=O)[C@H](Cc2ccc(O)cc2)NC(=O)[C@H](CCCCN)NC(=O)CNC(=O)[C@H](C(C)C)NC1=O [compound 168, Ac-hLeu-Y-C-V-G-K-Y-D-V-Y-C-5FW-aMePhe-Thr-dLys(DOTA)-CONH2] (Ac-[hLeu]YCVGKYDVYC[Trp(5-F)][αMeF]T[dK](DOTA)-NH2; disulfide 3-11)
4 | 1 to 10 nM | CC(=O)N[C@@H](CCC(C)C)C(=O)N[C@@H](Cc1ccc(O)cc1)C(=O)N[C@H]1CSSC[C@@H](C(=O)N[C@@H](Cc2c[nH]c3ccc(F)cc23)C(=O)N[C@@H](Cc2ccccc2)C(=O)N[C@H](C(=O)N[C@H](CCCCNC(=O)CN2CCN(CC(=O)O)CCN(CC(=O)O)CCN(CC(=O)O)CC2)C(N)=O)[C@@H](C)O)NC(=O)[C@H](Cc2cccnc2)NC(=O)[C@H](C(C)C)NC(=O)[C@H](CC(=O)O)NC(=O)[C@H](Cc2ccc(O)cc2)NC(=O)[C@H](CCCCN)NC(=O)CNC(=O)[C@H](C(C)C)NC1=O [compound 170, Ac-hLeu-Y-C-V-G-K-Y-D-V-3PyA-C-5FW-F-Thr-dLys(DOTA)-CONH2] (Ac-[hLeu]YCVGKYDV[3Pal]C[Trp(5-F)]FT[dK](DOTA)-NH2; disulfide 3-11)
5 | < 1 nM | COc1ccc(C[C@@H]2NC(=O)[C@H](C(C)C)NC(=O)[C@H](CC(=O)O)NC(=O)[C@H](Cc3ccc(O)cc3)NC(=O)[C@H](CCCCN)NC(=O)CNC(=O)[C@H](C(C)C)NC(=O)[C@@H](NC(=O)[C@H](Cc3ccc(O)cc3)NC(=O)[C@H](CCC(C)C)NC(C)=O)CSSC[C@@H](C(=O)N[C@@H](Cc3c[nH]c4ccc(F)cc34)C(=O)N[C@@H](Cc3ccccc3)C(=O)N[C@H](C(=O)N[C@H](CCCCNC(=O)CN3CCN(CC(=O)O)CCN(CC(=O)O)CCN(CC(=O)O)CC3)C(N)=O)[C@@H](C)O)NC2=O)cc1 [compound 171, Ac-hLeu-Y-C-V-G-K-Y-D-V-OMeTyr-C-5FW-F-Thr-dLys(DOTA)-CONH2] (Ac-[hLeu]YCVGKYDVY(Me)C[Trp(5-F)]FT[dK](DOTA)-NH2; disulfide 3-11)
